What was measured:
[1] = Distribution in normal rat brain after CED, fluorescence microscopy; conditions: for local brain tissue damage: free SN-38 infused by CED into normal rat brain
Procedure: Serial coronal tissue sections (20 μm thickness) were prepared using Tissue-Tek Cryo3 (Sakura Finetek USA, Inc., Torrance, Calif.), and frozen sections were examined under a fluorescence microscope, BIOREVO BZ9000 (Keyence, Osaka, Japan), at an excitation wavelength of 377 nm and an emission wavelength 447 nm to evaluate the distribution of NK012 within the tissues. Image data were recorded using BZ-II Analyzer 1.10 software (Keyence).
Animals were euthanized immediately after infusion and serial sections were obtained using a cryostat (20 μm thickness; 1 mm interval).

[2] = system: 9L orthotopic brain tumor model; test: Survival study, 9L orthotopic brain tumor model; format: in vivo, rat; conditions: rats with 9L tumor, 0.04 mg by single CED on day 5 after implantation
Procedure: Fischer 344 rats were used for the 9L model, and F344/NJc1-rnu/rnu (nude) rats were used for the U87MG model. […] Briefly, 9L and U87MG cells were harvested using trypsin-EDTA following washing once with complete medium, and resuspended in cold phosphate-buffered saline (PBS) for implantation. A cell suspension containing 1×10^4 (9L) or 2×10^5 (U87MG) cells per 10 μl of PBS was used for implantation into the striatum region of rat brains. Under deep isoflurane anesthesia, rats were placed in a small animal stereotactic frame (David Kopf Instruments, Tujunga, Calif.). […] Five microliters of cell suspension were injected at a depth of 4.5 mm from the brain surface. After a wait of 2 minutes, another 5 μl were injected at a depth of 4 mm. After a final wait of 2 minutes, the needle was removed, and the wound was closed with sutures.
Fourteen rats with implanted U87MG tumor cells were randomly divided into two groups on day 5 after tumor cell implantation and treated as follows: (1) CED of PBS (n=7) as a control, and (2) CED of NK012 (n=7). […] All other rats were monitored daily for survival. Survival was compared between the treatment groups using a log-rank test. Estimated survival was expressed as a Kaplan-Meier curve.

For “7-ethyl-10-hydroxy-camptothecine [SN-38]”, the “distribution after CED (description)” value ([1]; CED into normal rat striatum, fluorescence of SN-38) was “quite restricted”, the “local brain tissue damage” value [1] was “severe local tissue damage” and the “local brain tissue damage” value ([1]; listed as free SN-38) was “increased local brain damage”. The median survival [2] was 28 days and the “survival range after tumor cell implantation” value [2] was 24 to 30 days.

Source: US10758484B2, “CED of SN-38-loaded micelles against brain tumor” (Nippon Kayaku Co., Ltd., priority 2014, dated 2020)
